Test results as given in patent publication US20110245242A1, “Heterocyclically Substituted Anilinopyrimides” (Bayer CropScience AG, priority 2008, published 2011).

Key:
Type in all cases: physicochemical
physchem = conditions: pH 7.8
Description: The log P values were measured in accordance with EEC Directive 79/831 Annex V.A8 by HPLC (High Performance Liquid Chromatography) on reversed-phase columns (C 18) using the methods below: [c] The LC-MS determination in the neutral range was carried out at pH 7.8 using the mobile phases 0.001 molar aqueous ammonium bicarbonate solution and acetonitrile linear gradient from 10% acetonitrile to 95% acetonitrile.

[1] = log P by LC-MS, method [b], acid range pH 2.7; conditions: pH 2.7
Description: The log P values were measured in accordance with EEC Directive 79/831 Annex V.A8 by HPLC (High Performance Liquid Chromatography) on reversed-phase columns (C 18) using the methods below:
[b] The LC-MS determination in the acid range was carried out at pH 2.7 using the mobile phases 0.1% aqueous formic acid and acetonitrile (contains 0.1% formic acid)
linear gradient from 10% acetonitrile to 95% acetonitrile.

[2] = log P by HPLC on reversed-phase columns (C 18), method [a], acidic range pH 2.3; conditions: pH 2.3
Description: The log P values were measured in accordance with EEC Directive 79/831 Annex V.A8 by HPLC (High Performance Liquid Chromatography) on reversed-phase columns (C 18) using the methods below: [a] The determination was carried out in the acidic range at pH 2.3 using the mobile phases 0.1% aqueous phosphoric acid and acetronitrile linear gradient from 10% acetonitrile to 95% acetronitrile.

Row | log p (physchem) | log p [1] | Structure (SMILES) | log p [2]
1 | 3.06[c]; | 2.65[b] | CC1CC(=O)N(c2cccc(Nc3ncc(C(F)(F)F)c(NC4CC4)n3)c2)C1 (centres unmarked) [Example 240] | –
2 | 3.17[c]; | 2.04[b] | CC1CN(c2cccc(Nc3ncc(Br)c(NC4CCC4)n3)c2)C(=O)O1 (centres unmarked) [Example 287] | –
3 | 2.75[c]; | 1.58[b] | C[C@H]1COC(=O)N1c1cccc(Nc2ncc(Cl)c(N3CCC3)n2)c1 [Example 230] | –
4 | 3.26[c]; | 3.25[b] | CC1CC(Nc2nc(Nc3cccc(N4CCCC4=O)c3)ncc2Cl)C1 (centres unmarked) [Example 299] | –
5 | 3.16[c]; | 2.15[b] | CC1CC(Nc2nc(Nc3cccc(N4C(=O)CCC4C)c3)ncc2Cl)C1 (centres unmarked) [Example 253] | –
6 | 2.62[c]; | 2.16[b] | Cc1ccc(Nc2ncc(C(F)(F)F)c(NC3CC3)n2)cc1N1CCCC1=O [Example 316] | –
7 | 3.09[c] | – | CSCC(C)(C)Nc1nc(Nc2ccc(N3CCOC3=O)cc2)ncc1Cl [Example 40] | –
8 | 3.11[c]; | 2.2[b] | CC1CC1Nc1nc(Nc2cccc(N3C(=O)CC(C)(C)C3=O)c2)ncc1Br (centres unmarked) [Example 295] | –
9 | 3.53[c]; | 2.66[b] | CC1CC1N(C)c1nc(Nc2cccc(N3CCCC3=O)c2)ncc1Cl (centres unmarked) [Example 304] | –
10 | 2.74[c]; | 1.87[b] | CCC1CCC(=O)N1c1cccc(Nc2ncc(Cl)c(NC3CC3)n2)c1 (centres unmarked) [Example 294] | –
11 | 2.79[c]; | 1.77[b] | CC1CC1Nc1nc(Nc2cccc(N3CCOC3=O)c2)ncc1Br (centres unmarked) [Example 227] | –
12 | 3.54[c]; | 2.33[b] | CCC1CC(C)C(=O)N1c1cccc(Nc2ncc(Cl)c(NCC3CC3)n2)c1 (centres unmarked) [Example 212] | –
13 | 2.51[c]; | 1.98[b] | COc1ccc(Nc2ncc(C(F)(F)F)c(NC3CC3)n2)cc1N1CCCC1=O [Example 324] | –
14 | 3.34[c]; | 3.04[b] | CC(C)C1COC(=O)N1c1cccc(Nc2ncc(C(F)(F)F)c(NC3CC3)n2)c1 (centres unmarked) [Example 249] | –
15 | 2.99[c] | – | CC1CC(Nc2nc(Nc3cccc(N4CCOC4=O)c3)ncc2Cl)C1 (centres unmarked) [Example 256] | –
16 | 2.32[c]; | 1.44[b] | Cc1ccc(Nc2ncc(Cl)c(NC3CC3)n2)cc1N1CCCC1=O [Example 305] | –
17 | – | 2.86[b] | C[C@H]1CCN(c2cccc(Nc3ncc(Cl)c(NC4CC4)n3)c2)C1=O [Example 124] | 2.86[a];
18 | 2.24[c]; | 1.29[b] | CCNc1nc(Nc2cccc(N3CCCC3=O)c2)ncc1Cl [Example 204] | –
19 | 2.92[c]; | 2.09[b] | CC1CC1Nc1nc(Nc2cccc(N3C(=O)CC(C)(C)C3=O)c2)ncc1Cl (centres unmarked) [Example 246] | –
20 | 2.8[c]; | 2.47[b] | COc1cc(Nc2ncc(C(F)(F)F)c(NC3CC3)n2)cc(N2CCCC2=O)c1 [Example 326] | –
21 | 3.09[c]; | 2.09[b] | CC1CC(Nc2nc(Nc3cccc(N4C(=O)CC(C)C4=O)c3)ncc2Cl)C1 (centres unmarked) [Example 333] | –
22 | 3.24[c]; | 2.45[b] | O=C1CCCN1c1cccc(Nc2ncc(C(F)(F)F)c(N3CCCC3)n2)c1 [Example 301] | –
23 | 3.02[c]; | 1.91[b] | CC1CN(c2cccc(Nc3ncc(Cl)c(NC4CCC4)n3)c2)C(=O)O1 (centres unmarked) [Example 312] | –

Row | log p (physchem) | log p [1] | Structure (SMILES) | log p [2]
24 | 2.37[c]; | 2.25[b] | COC(=O)N(c1cccc(N2CCCC2=O)c1)c1ncc(C(F)(F)F)c(NC2CC2)n1 [Example 309] | –
25 | 2.32[c]; | – | O=C1CCC(=O)N1Cc1cccc(Nc2ncc(Cl)c(NC3CC3)n2)c1 [Example 235] | –
26 | 2.67[c]; | 2.05[b] | O=C1CCCN1c1cccc(Nc2ncc(C(F)(F)F)c(NCCF)n2)c1 [Example 302] | –
27 | 2.9[c]; | 1.83[b] | CC1CC1Nc1nc(Nc2cccc(N3C(=O)OCC3C)c2)ncc1Br (centres unmarked) [Example 239] | –
28 | 3.07[c]; | 1.82[b] | CC(C)Nc1nc(Nc2cccc(N3CCC(C)C3=O)c2)ncc1Cl (centres unmarked) [Example 185] | –
29 | 3.07[c]; | 3.1[b] | O=C1CCCN1c1cccc(Nc2ncc(C(F)(F)F)c(NCC(F)(F)C(F)(F)F)n2)c1 [Example 218] | –
30 | 2.66[c]; | 2.6[b] | O=C1CCCN1c1cccc(Nc2ncc(C(F)(F)F)c(NCC(F)(F)F)n2)c1 [Example 306] | –
31 | 1.91[c]; | 1.28[b] | CNc1nc(Nc2ccc(F)c(N3CCCC3=O)c2)ncc1Cl [Example 199] | –
32 | 2.18[c]; | – | COc1ccc(Nc2ncc(Cl)c(NC3CC3)n2)cc1N1CCCC1=O [Example 328] | –
33 | – | 1.6[b] | COCC(C)Nc1nc(Nc2cccc(N3C(=O)OCC3C)c2)ncc1Cl (centres unmarked) [Example 118] | 1.6[a];
34 | 1.99[c]; | 1.77[b] | COC(=O)N(c1cccc(N2CCCC2=O)c1)c1ncc(Cl)c(NC2CC2)n1 [Example 327] | –
35 | 2.55[c]; | 1.55[b] | CC(C)Nc1nc(Nc2ccc(F)c(N3CCCC3=O)c2)ncc1Cl [Example 197] | –
36 | 3.7[c]; | 2.36[b] | CCC1CC(C)C(=O)N1c1cccc(Nc2ncc(Br)c(NC(C)C)n2)c1 (centres unmarked) [Example 210] | –
37 | – | 1.51[b] | COCC(C)Nc1nc(Nc2ccc(N3CCCC3=O)cc2)ncc1Cl (centres unmarked) [Example 1] | 1.51[a];
38 | 2.52[c]; | 2.38[b] | O=C1CCCN1c1cccc(Nc2ncc(C(F)(F)F)c(NCC(F)F)n2)c1 [Example 311] | –
39 | 3.22[c]; | 2.43[b] | CC1CC(Nc2nc(Nc3cccc(N4C(=O)CC(C)(C)C4=O)c3)ncc2Cl)C1 (centres unmarked) [Example 259] | –
40 | 2.98[c]; | 2.74[b] | O=C1CCC(C(F)(F)F)N1c1cccc(Nc2ncc(C(F)(F)F)c(NC3CC3)n2)c1 (centres unmarked) [Example 314] | –
41 | 3.18[c]; | 2.22[b] | CC(C)C1COC(=O)N1c1cccc(Nc2ncc(Br)c(NC3CC3)n2)c1 (centres unmarked) [Example 250] | –
42 | 3.66[c]; | 1.98[b] | CN(c1cccc(N2CCCC2=O)c1)c1ncc(Cl)c(N(C)C2CC2)n1 [Example 325] | –
43 | 2.48[c]; | 1.7[b] | CC1CC1Nc1nc(Nc2cccc(N3CCCCC3=O)c2)ncc1Cl (centres unmarked) [Example 213] | –
44 | 2.46[c]; | 1.64[b] | COc1cc(Nc2ncc(Cl)c(NC3CC3)n2)cc(N2CCCC2=O)c1 [Example 318] | –
45 | 2.67[c]; | 1.89[b] | O=C1CCC(C(F)(F)F)N1c1cccc(Nc2ncc(Cl)c(NC3CC3)n2)c1 (centres unmarked) [Example 260] | –
46 | 2.65[c] | – | CCOC(=O)[C@@H]1CCC(=O)N1c1cccc(Nc2ncc(Br)c(NC3CC3)n2)c1 [Example 191] | –

Row | Structure (SMILES) | log p (physchem) | log p [1] | log p [2]
47 | CC1CC(=O)N(c2cccc(Nc3ncc(Cl)c(NC4CCC4)n3)c2)C1=O (centres unmarked) [Example 188] | 2.67[c]; | 1.76[b] | –
48 | CC1CC(Nc2nc(Nc3cccc(N4C(=O)CC(C)(C)C4=O)c3)ncc2Br)C1 (centres unmarked) [Example 257] | 3.66[c]; | 2.58[b] | –
49 | CC1CCC(=O)N1c1cccc(Nc2ncc(C(F)(F)F)c(NC3CC3)n2)c1 (centres unmarked) [Example 243] | 2.73[c]; | 2.41[b] | –
50 | Cc1cc(Nc2ncc(C(F)(F)F)c(NC3CC3)n2)cc(N2CCCC2=O)c1 [Example 310] | 2.98[c]; | 2.51[b] | –
51 | CC1CC1Nc1nc(Nc2cccc(N3CCCC3=O)c2)ncc1Br (centres unmarked) [Example 229] | 2.82[c]; | 1.84[b] | –
52 | CC1CCC(=O)N1c1cccc(Nc2ncc(Cl)c(NC3CC3)n2)c1 (centres unmarked) [Example 30] | – | 1.6[b] | 1.6[a];
53 | CC1COC(=O)N1c1cccc(Nc2ncc(C(F)(F)F)c(NC3CC3)n2)c1 (centres unmarked) [Example 261] | 2.7[c]; | – | –
54 | CC1CCN(c2cccc(Nc3ncc(C(F)(F)F)c(NC4CC4)n3)c2)C1=O (centres unmarked) [Example 292] | 3.05[c]; | 2.65[b] | –
55 | CC1CC1Nc1nc(Nc2cccc(N3C(=O)OC[C@H]3C(C)C)c2)ncc1Cl (some centres unmarked) [Example 216] | 3.46[c]; | 2.43[b] | –
56 | CC1CCN(c2cccc(Nc3ncc(C(F)(F)F)c(NC4CCC4)n3)c2)C1=O (centres unmarked) [Example 251] | 3.67[c]; | 3.16[b] | –
57 | CC1CCN(c2cccc(Nc3ncc(Cl)c(NC4CC4C)n3)c2)C1=O (centres unmarked) [Example 241] | 3.17[c]; | 2.06[b] | –
58 | CC1CC(=O)N(c2cccc(Nc3ncc(C(F)(F)F)c(NC4CCC4)n3)c2)C1=O (centres unmarked) [Example 247] | 3.04[c]; | 2.67[b] | –
59 | CCC1CC(C)C(=O)N1c1cccc(Nc2ncc(Br)c(NC3CC3)n2)c1 (centres unmarked) [Example 208] | 3.31[c]; | 2.32[b] | –
60 | CC(C)Nc1nc(Nc2cccc(N3CCCC3=O)c2)ncc1C(F)(F)F [Example 297] | 3[c]; | 2.35[b] | –
61 | CC1CCC(=O)N1c1cccc(Nc2ncc(Cl)c(NC3CC3)n2)c1 (centres unmarked) [Example 126] | – | 2.59[b] | 2.59[a];
62 | CC(C)Nc1nc(Nc2cccc(N3C(=O)OCC3C)c2)ncc1Br (centres unmarked) [Example 262] | 2.83[c]; | – | –
63 | CC1CCC(=O)N1c1cccc(Nc2ncc(Cl)c(NC3CC3)n2)c1 (centres unmarked) [Example 125] | – | 2.59[b] | 2.59[a];
